From US4623639A (Hoffmann-La Roche Inc., priority 1983, dated 1986)
Structures can show the parent of a compound that is named as a salt.

Tests used:
male mice = test: Maximum tolerated dose test (no gross behavioural effects); type: in vivo; details: observed 6 hours and 24 hours after administration
Description: MAXIMUM TOLERATED DOSE TEST TEST METHOD
This test determines the maximum acute dose of a compound of this invention which causes no gross behavioural effects.
Groups of 3 male mice are administered 400 mg/kg and 100 mg/kg of a compound of this invention subcutaneously, intravenously or intraperitoneally. The mice are observed periodically during the 6 hours after the administration and 24 hours after the administration. Evidence of stimulation, sedation, loss of righting reflex, convulsions, tremor, death and other gross effects are noted. If effects are observed, the compound is tested at lower dosages in order to determine the no gross effect level. The results are expressed as the maximum dose administered in mg/kg which causes no gross behavioural effects.

[1] = molecular target: T1, Human granulocyte elastase (Homo sapiens, UniProt P08246); test: Assay of the inhibition of human granulocyte elastase (succinyl (Ala)3-p-nitroanilide cleavage); type: biochemical; details: succinyl (Ala)3-p-nitroanilide substrate, 0.2M Tris HCl pH 8.0, 37° C., 1 hour; read-out: IC50 (concentration required to give 50% inhibition)
T1 sequence (P08246 30-267): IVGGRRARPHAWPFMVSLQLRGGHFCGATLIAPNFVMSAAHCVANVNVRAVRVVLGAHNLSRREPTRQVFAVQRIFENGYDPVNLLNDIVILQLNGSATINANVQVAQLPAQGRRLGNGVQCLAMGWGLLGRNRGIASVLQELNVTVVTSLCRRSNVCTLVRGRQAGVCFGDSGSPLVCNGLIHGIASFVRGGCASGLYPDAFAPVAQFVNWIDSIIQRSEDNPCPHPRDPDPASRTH
Description: ASSAY OF THE INHIBITION OF HUMAN GRANULOCYTE ELASTASE TEST METHOD
This assay is based on the method of J. Bieth, B. Spiess and C. G. Wermuth, Biochem. 11, (1974), 350.
Succinyl (Ala)3 -p-nitroanilide (20 μl of a 125 mM solution in N-methylpyrrolidone) was diluted in buffer (3 ml, 0.2M Tris HCl, pH 8.0) and warmed to 37° C. Human granulocyte elastase (4 μg in 20 μl of buffer) was added to initiate the reaction, which was terminated after 1 hour at 37° C. by the addition of glacial acetic acid (100 μl). The p-nitroaniline released was determined by measuring the extinction of the solution at 410 nm by means of a spectrophotometer. The compounds of the present invention, in 50 μl of methanol, were added to the buffered substrate prior to the addition of the human granulocyte elastase and the substrate cleavage rate was compared with solvent controls. The concentration of compound of the present invention required to give 50% inhibition was determined.

Row | Structure (SMILES) | dosage at which no behavioural effects were observed (male mice; intraperitoneally) | dosage at which no behavioural effects were observed (male mice; intravenously) | dosage at which no behavioural effects were observed (male mice; subcutaneously) | IC50 [1]
1 | CC(C)[C@@H](C=O)NC(=O)[C@@H]1CCCN1C(=O)[C@H](CCCCNC(=O)c1ccc(C(=O)O)cc1)NS(=O)(=O)C12CC3CC(CC(C3)C1)C2 [N^α -(1-adamantylsulphonyl)-N^ε -(4-carboxybenzoyl)-L-lysyl-L-prolyl-L-valinal] | 100 mg/kg | 100 mg/kg | 400 mg/kg | 0.06 µM
2 | CC(C)[C@@H](C=O)NC(=O)[C@@H]1CCCN1C(=O)[C@H](CCCCNC(=O)CCCCC(=O)O)NS(=O)(=O)C12CC3CC(CC(C3)C1)C2 [N^α -(1-adamantylsulphonyl)-N^ε -adipoyl-L-lysyl-L-prolylvalinal] |  |  |  | 0.08 µM
3 | CC(C)[C@@H](C=O)NC(=O)[C@@H]1CCCN1C(=O)[C@H](CCCCNC(=O)CCC(=O)O)NS(=O)(=O)C12CC3CC(CC(C3)C1)C2 [N^α -(1-adamantylsulphonyl)-N^ε -succinyl-L-lysyl-L-prolyl-L-valinal] |  | 100 mg/kg | 400 mg/kg | 0.08 µM
4 | CC(C)[C@@H](C=O)NC(=O)[C@H](C)NC(=O)[C@H](CCCCNC(=O)c1ccc(C(=O)O)cc1)NS(=O)(=O)C12CC3CC(CC(C3)C1)C2 [N^α -(1-adamantylsulphonyl)-N^ε -(4-carboxybenzoyl)-L-lysyl-L-alanyl-L-valinal] | 100 mg/kg | 100 mg/kg | 400 mg/kg | 0.05 µM
5 | CC(C)[C@@H](C=O)NC(=O)[C@H](C)NC(=O)[C@H](CCCCNC(=O)CCC(=O)O)NS(=O)(=O)C12CC3CC(CC(C3)C1)C2 [N^α -(1-adamantylsulphonyl)-N^ε -succinyl-L-lysyl-L-alanylvalinal] |  |  |  | 0.12 µM
6 | CC(C)[C@@H](C=O)NC(=O)[C@@H]1CCCN1C(=O)[C@H](CCCCNC(=O)c1ccccc1C(=O)O)NS(=O)(=O)C12CC3CC(CC(C3)C1)C2 [N^α -(1-adamantylsulphonyl)-N^ε -(2-carboxybenzoyl)-L-lysyl-L-prolylvalinal] |  |  |  | 0.09 µM
7 | CC(C)CNC(=O)[C@@H]1CCCN1C(=O)[C@H](CCCCNC(=O)CC[C@H](N)C(=O)O)NCCC1CCC2CC1C2(C)C (some centres unmarked) [dihydrobromide] |  |  |  | 16 µM
8 | CC(C)CNC(=O)[C@@H]1CCCN1C(=O)[C@H](CCCCNC(=O)CCC(=O)O)NCCC12CC3CC(CC(C3)C1)C2 [N^α -(1-adamantylethyl)-N^ε -succinyl-L-lysyl-L-proline isobutylamide] | 50 mg/kg |  |  | 4.5 µM
